The target in series [1] is Granzyme B (human lymphocytes) (Homo sapiens (Human), UniProt P10144). As to the kind of experiment: human Granzyme B biochemical assay. The method in brief:
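Fluorogenic Ac-IETD-AFC cleavage (Ex 400/Em 505 nm) read after 60 min at 22 °C, following 30 min, 22 °C enzyme–compound pre-incubation. Working stocks: enzyme 10 nM in 0.1% BSA buffer, substrate 800 µM, compound 8 points, 3.16-fold from 40 µM. Controls set 0% (DMSO) and 100% (standard inhibitor) inhibition; IC50 fitted.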

The nature of series [2]: metabolic stability assay using liver microsomes. The format is in vitro ADME. The following applies: human liver microsomes, with NRS at 37° C. The method, then:
In addition, compounds of Formula I-VIII described above are also tested in the metabolic stability assay using liver microsomes, as provided below.
Buffer pH7.4: Prepare 1 (M) KH2PO4 and 1 (M) K2HPO4. Titrate 1(M) K2HPO4 with 1 (M) KH2PO4 to obtain pH 7.40. Dilute this buffer 10 fold in Water (30 ml buffer+270 ml of water) to obtain 100 mM phosphate buffer. Adjust pH to 7.40±0.02 using 5(N) HCl or 5(N) NaOH.
NADPH Regeneration System (NRS): Prepare a solution containing 13 mM NADP, 33 mM Glucose-6-phosphate, 33 mM MgCl2 and 4 U/ml Glucose-6-phosphate dehydrogenase in buffer.
Liver Microsome (LM) suspension: Thaw LM vial on ice, then mix 1.0 ml LM (20 mg/ml) with 19 ml buffer [final LM Conc: 1 mg/ml]
LM+NRS suspension: Mix 5.0 ml NRS with 20 ml LM suspension [final LM Conc: 0.8 mg/ml]
System suitability standard: a synthesized compound having Mol wt 686.2 used as System suitability standard. Dissolve this compound in ice-cold acetonitrile to obtain concentration of 0.1 μg/ml and store at 4° C.
Compound Stock: 10 mM in DMSO
Sub stock (100 μM): 4 μl of 10 mM Compound Stock+[…] Acetonitrile
Working plate (2 μM): 10 μl of 100 μM Sub stock+490 μl buffer
Incubate all plastic materials including tips at 37° C. overnight.
Incubate LM suspension and NRS at 37° C. for 15 min before use.
Add 40 μl buffer to the wells of blank plate.
Add 40 μl compound (from working plate) to 0, 5, 10, 20, 30 and 60 min plates.
Initiate reaction by adding 40 μl of LM+NRS suspension in each plate.
Terminate reaction by adding 240 μl ice-cold acetonitrile containing system suitability standard at designated time points. For T=0 add 240 μl ice-cold acetonitrile containing system suitability standard before LM+NRS addition.
Centrifuge (3500 rpm, 20 min and 15° C.) the plates.
Mix 110 μl supernatant with 110 μl water and quantitate amount of Compound in the solution using LC-MS/MS.
For Scaled CLint & Predicted CL use the relevant physiological parameters, as applicable.
Human LM: Corning, Cat #25117
Mouse LM: Xenotech, Cat #M1000
(2) Volumes mentioned in the protocol are representative values and may change depending on number of test compounds.
(3) It is assumed that the compounds are chemically stable in the assay system/buffer.
The metabolic stability assay described above can be performed using different test concentrations, LM Concentrations, or time points.
Certain compounds of this disclosure were tested in the microsomal stability assay provided above.
For orientation: Liver microsomes are vesicles of endoplasmic reticulum, rich in cytochrome P450 enzymes.

Setting [3] is: Granzyme B (human lymphocytes) 5 nM, substrate Ac-IETD-AFC 200 μM, Cpd incubation with enzyme 30 mins, 22° C., read time 60 mins, read-out: IC50.
[4] abbreviates: Granzyme B IC50 as repeated in Table 7, read-out: IC50.

Read-outs that look alike come from different tables or passages of the source. A value given as a limit tells only on which side of the number the result lay.

One may read the IC50 as the concentration needed to halve the response being measured.

Chain of Granzyme B (human lymphocytes) (P10144 21-247): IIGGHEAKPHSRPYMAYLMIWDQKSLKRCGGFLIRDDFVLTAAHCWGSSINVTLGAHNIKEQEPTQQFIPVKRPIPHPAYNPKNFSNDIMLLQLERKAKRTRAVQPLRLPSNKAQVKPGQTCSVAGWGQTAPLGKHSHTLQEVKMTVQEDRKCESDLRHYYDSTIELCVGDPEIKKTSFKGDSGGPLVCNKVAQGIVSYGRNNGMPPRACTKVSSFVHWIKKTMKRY

Turning to `CC(=O)N[C@H](C(=O)N[C@H]1CCc2cccc3c2N(C1=O)[C@H](C(=O)NCc1c[nH]nn1)C3)C(C)C` [Compound C025, (2S,5S)-5-((S)-2-Acetylamino-3-methyl-butyrylamino)-4-oxo-1,2,4,5,6,7-hexahydro-azepino[3,2,1-hi]indole-2-carboxylic acid (1H-[1,2,3]triazol-4-ylmethyl)-amide], the IC50 in series [1] (setting [3]) and in series [1] (setting [4]) was 1 to 300 nM in each case. The “HLM % remaining @ 30 min” value in series [2] is given as “*** (the symbol “***” indicates a remaining percentage of 71-100%)”.
Take `CC(C)[C@H](NC(=O)COCCF)C(=O)N[C@H]1CCc2cccc3c2N(C1=O)[C@H](C(=O)NCc1c[nH]nn1)C3` [Compound C056, (2S,5S)-5-{(S)-2-[2-(2-Fluoro-ethoxy)-acetylamino]-3-methyl-butyrylamino}-4-oxo-1,2,4,5,6,7-hexahydro-azepino[3,2,1-hi]indole-2-carboxylic acid (1H-[1,2,3]triazol-4-ylmethyl)-amide]: the IC50 in series [1] (setting [3]) and in series [1] (setting [4]) was 1 to 300 nM throughout. In addition, the “HLM % remaining @ 30 min” value in series [2] is “*** (the symbol “***” indicates a remaining percentage of 71-100%)”.
For `CC[C@@H](C)[C@H](NC(=O)c1ccccc1)C(=O)N[C@H]1CCc2cccc3c2N(C1=O)[C@H](C(=O)NCc1c[nH]nn1)C3` [Compound C053, (2S,5S)-5-((2S,3R)-2-Benzoylamino-3-methyl-pentanoylamino)-4-oxo-1,2,4,5,6,7-hexahydro-azepino[3,2,1-hi]indole-2-carboxylic acid (1H-[1,2,3]triazol-4-ylmethyl)-amide], the IC50 in series [1] (setting [3]) and in series [1] (setting [4]) was 1 to 300 nM throughout. In series [2], the “HLM % remaining @ 30 min” value is “** (“**” indicates a remaining percentage of 31-70%)”.
Consider `CC[C@H](C)[C@H](NC(=O)c1ccccc1)C(=O)N[C@H]1CCc2cccc3c2N(C1=O)[C@H](C(=O)NCc1c[nH]nn1)C3` [Compound C039, (2S,5S)-5-((2S,3S)-2-Benzoylamino-3-methyl-pentanoylamino)-4-oxo-1,2,4,5,6,7-hexahydro-azepino[3,2,1-hi]indole-2-carboxylic acid (1H-[1,2,3]triazol-4-ylmethyl)-amide], for which the 50% inhibitory concentration (IC50) in series [1] (setting [3]) and in series [1] (setting [4]) was 1 to 300 nM each time. Further, in series [2], the “HLM % remaining @ 30 min” value was “** (“**” indicates a remaining percentage of 31-70%)”.
As to `CC[C@H](C)[C@H](NC(=O)COCCF)C(=O)N[C@H]1CCc2cccc3c2N(C1=O)[C@H](C(=O)NCc1c[nH]nn1)C3` [Compound C058, (2S,5S)-5-{(2S,3S)-2-[2-(2-Fluoro-ethoxy)-acetylamino]-3-methyl-pentanoylamino}-4-oxo-1,2,4,5,6,7-hexahydro-azepino[3,2,1-hi]indole-2-carboxylic acid (1H-[1,2,3]-triazol-4-ylmethyl)-amide], the IC50 in series [1] (setting [3]) and in series [1] (setting [4]) was 1 to 300 nM throughout. Besides, the “HLM % remaining @ 30 min” value in series [2] was “*** (the symbol “***” indicates a remaining percentage of 71-100%)”.
In the case of `CC[C@H](C)[C@H](NC(=O)CF)C(=O)N[C@H]1COc2cccc3c2N(C1=O)[C@H](C(=O)NCc1c[nH]nn1)C3` [Compound C098, (1S,8S)-8-[(2S,3S)-2-(2-Fluoro-acetylamino)-3-methyl-pentanoylamino]-9-oxo-1,2,8,9-tetrahydra-7H-6-oxa-9a-aza-benzo[cd]azulene-1-carboxylic acid (1H-[1,2,3]triazol-4-ylmethyl)-amide], the IC50 in series [1] and in series [1] (Granzyme B IC50 as repeated in Table 7) was 1 to 300 nM in each case. Moreover, the “HLM % remaining @ 30 min” value in series [2] is on record as “*** (the symbol “***” indicates a remaining percentage of 71-100%)”.
On to `CC[C@H](C)[C@H](NC(=O)COCCF)C(=O)N[C@H]1COc2cccc3c2N(C1=O)[C@H](C(=O)NCc1c[nH]nn1)C3` [Compound C099, (1S,8S)-8-{(2S,3S)-2-[2-(2-Fluoro-ethoxy)-acetylamino]-3-methyl-pentanoylamino}-9-oxo-1,2,8,9-tetrahydro-7H-6-oxa-9a-aza-benzo[cd]azulene-1-carboxylic acid (1H-[1,2,3]triazol-4-ylmethyl)-amide], for which the IC50 in series [1] (setting [3]) and in series [1] (setting [4]) was 1 to 300 nM each time. The “HLM % remaining @ 30 min” value in series [2] was “*** (the symbol “***” indicates a remaining percentage of 71-100%)”.
As for `CC(=O)N[C@H](C(=O)N[C@H]1CCc2cccc3c2N(C1=O)[C@H](C(=O)NCc1c[nH]nn1)C3)C1CC1` [Compound C081, (2S,5S)-5-((S)-2-Acetylamino-2-cyclopropyl-acetylamino)-4-oxo-1,2,4,5,6,7-hexahydro-azepino[3,2,1-hi]indole-2-carboxylic acid (1H-[1,2,3]triazol-4-ylmethyl)-amide], the IC50 in series [1] (setting [3]) was in the range of 301 to 1000 nM.
Still for that read-out and setting: with `CC(=O)N[C@H](C(=O)N[C@H]1CCc2cccc3c2N(C1=O)[C@H](C(=O)NCc1c[nH]nn1)C3)C1CCCC1` [Compound C077, (2S,5S)-5-((S)-2-Acetylamino-2-cyclopentyl-acetylamino)-4-oxo-1,2,4,5,6,7-hexahydro-azepino[3,2,1-hi]indole-2-carboxylic acid (1H-[1,2,3]triazol-4-ylmethyl)-amide] the figure was 1 to 300 nM; with `CC(C)C[C@H](NC(=O)Cc1ccccc1)C(=O)N[C@H]1CCc2cccc3c2N(C1=O)[C@H](C(=O)NCc1c[nH]nn1)C3` [Compound C016, (2S,5S)-5-((S)-4-Methyl-2-phenylacetylamino-pentanoylamino)-4-oxo-1,2,4,5,6,7-hexahydro-azepino[3,2,1-hi]indole-2-carboxylic acid (1H-[1,2,3]triazol-4-ylmethyl)-amide], 1000 to 5000 nM; with `CC(=O)N[C@H](C(=O)N[C@H]1CCc2cccc3c2N(C1=O)[C@H](C(=O)NCc1c[nH]nn1)C3)C1CCC1` [Compound C083, (2S,5S)-5-((S)-2-Acetylamino-2-cyclobutyl-acetylamino)-4-oxo-1,2,4,5,6,7-hexahydro-azepino[3,2,1-hi]indole-2-carboxylic acid (1H-[1,2,3]triazol-4-ylmethyl)-amide], 1 to 300 nM.
The same measure, in the same setting: the same measure for `O=C(N[C@@H](Cc1ccc(O)cc1)C(=O)N[C@H]1CCc2cccc3c2N(C1=O)[C@H](C(=O)NCc1c[nH]nn1)C3)c1ccccc1` [Compound C042, (2S,5S)-5-[(S)-2-Benzoylamino-3-(4-hydroxy-phenyl)-propionylamino]-4-oxo,2,4,5,6,7-hexahydro-azepino[3,2,1-hi]indole-2-carboxylic acid (1H-[1,2,3]triazol-4-ylmethyl)-amide]: over 5000 nM.
`CC[C@H](C)[C@H](NC(=O)Cc1ccccc1)C(=O)N[C@H]1CCc2cccc3c2N(C1=O)[C@H](C(=O)NCc1c[nH]nn1)C3` [Compound C017, (2S,5S)-5-((2S,3S)-3-Methyl-2-phenylacetylamino-pentanoylamino)-4-oxo-1,2,4,5,6,7-hexahydro-azepino[3,2,1-hi]indole-2-carboxylic acid(1H-[1,2,3]triazol-4-ylmethyl)-amide]: the IC50 in series [1] (setting [3]) was in the range of 1 to 300 nM.
On the same count and under the same terms, with `CC(=O)N[C@H](C(=O)N[C@H]1CCc2cccc3c2N(C1=O)[C@H](C(=O)NCc1c[nH]nn1)C3)c1ccccc1` [Compound C031, (2S,5S)-5-((S)-2-Acetylamino-2-phenyl-acetylamino)-4-oxo-1,2,4,5,6,7-hexahydro-azepino[3,2,1-hi]indole-2-carboxylic acid (1H-[1,2,3]triazol-4-ylmethyl)-amide] the figure was 1000 to 5000 nM; with `O=C(Cc1ccccc1)N[C@@H](CO)C(=O)N[C@H]1CCc2cccc3c2N(C1=O)[C@H](C(=O)NCc1c[nH]nn1)C3` [Compound C018, (2S,5S)-5-((S)-3-Hydroxy-2-phenylacetylamino-propionylamino)-4-oxo-1,2,4,5,6,7-hexahydro-azepino[3,2,1-hi]indole-2-carboxylic acid (1H-[1,2,3]triazol-4-ylmethyl)-amide], over 5000 nM.

The record behind these values is patent US11667645B2, “Granzyme B directed imaging and therapy” (CytoSite Biopharma Inc., priority 2018, dated 2023).
